Results taken from a melting point compilation (Tetko et al.; mined from patent text by program, amines drawn as free bases though some values may be those of a salt).

Row | Compound | melting point [°C]
1 | N#Cc1cccc2c1COc1ccc(OCc3ccc4cc(F)c(Cl)cc4n3)cc1C2SCCC(=O)O (stereo not given) | 125 to 128
2 | COc1cc(NC(=O)N2CCOCN2)c(Cl)cc1Cl | 128 to 130
3 | O[C@H]1[C@H](O)CS[C@H]1n1cnc2c(Cl)nc(Cl)nc21 | 198 to 200
4 | CCOC(=O)c1cnc2n(c1=O)c1ccccc1c1ncc(C(=O)OCC)c(=O)n12 | 193 to 195
5 | Cn1cc(-c2ccccc2)c(=O)c(-c2ccc([N+](=O)[O-])cc2)c1 | 212 to 214
6 | N#CC1(Cl)C=C(OCc2ccccc2)C=NC1 (stereo not given) | 114 to 115
7 | Nc1cc(C(c2ccc([N+](=O)[O-])c(N)c2)(C(F)(F)F)C(F)(F)F)ccc1[N+](=O)[O-] | 257 to 259
8 | CCOC(=O)c1cnc2ccc3nc(S(C)(=O)=O)sc3c2c1Cl | 170 to 179
9 | COc1ccc2c(c1)c(O)c(C(=O)Nc1ccccc1)c(=O)n2C | 199 to 200
10 | CC(=O)OCC1OC(Cl)C(N=[N+]=[N-])C(OC(C)=O)C1OC(C)=O (stereo not given) | 102 to 104
11 | CNC(=O)N(O)C(C)c1ccc(F)c(Br)c1 (stereo not given) | 137 to 138
12 | CCn1ncc(OCc2ccc([Si](C)(C)C)cc2)c(Cl)c1=O | 122 to 125
13 | Cc1ccccc1CNC[C@@H]1C[C@@H](S)CN1S(=O)(=O)c1ccc2ccccc2c1 | 122
14 | CCC=C1Cc2c3c(c(C)c(C)c2C1=O)OC(C(=O)O)C3 (stereo not given) | 229
15 | Oc1ccc(-c2cc3cc(Br)ccc3o2)cc1 | 228 to 229
16 | COc1nc2cnccc2nc1NS(=O)(=O)c1cccc(Cl)c1Cl | 256 to 257
17 | CC(=O)c1nn(-c2c(Cl)cc(C(F)(F)F)cc2Cl)cc1C1CC1(Br)Br (stereo not given) | 150
18 | Cc1csc2nc3c(c(NC(=O)CN4C(=O)NC(=O)[C@@H]4C)c12)CCCC3 | 273 to 277
19 | CS(=O)(=O)OCC[C@H](CCCCC(=O)O)OS(C)(=O)=O | 54 to 55
20 | Fc1ccc2nc(S)oc2c1 | 248 to 250
21 | O=C(c1ccc(F)cc1C(F)(F)F)N1Cc2cccnc2Nc2ccccc21 | 183 to 185
22 | CCCCCCCCCCCCCCCc1c([N+](=O)[O-])cc([N+](=O)[O-])c(OC)c1C(=O)O | 68 to 75
23 | CC(CCCc1ccc(F)cc1)c1cc(NS(C)(=O)=O)c2c(c1)OC(C)(C)c1ccncc1-2 (stereo not given) | 208 to 209
24 | CC(=O)Nc1ccc(C=CC(=O)N2CCc3c([nH]c4ccccc34)C2c2ccc3c(c2)OCO3)cc1 (stereo not given) | 185
25 | COc1ccc(-n2nc3c4c([nH]cc-3c2=O)CCCCCCCC4)cc1 | 143 to 150

Row | Compound | melting point [°C]
26 | CCN1CCN(CC/C=C/c2cc3ncc(C#N)c(Nc4cc(OC)c(Cl)cc4Cl)c3cc2OC)CC1 | 129 to 131
27 | c1c(NC23CC4CC(CC(C4)C2)C3)nc(N2CCCC2)nc1N1CCNCC1 | 152 to 156
28 | COc1ccc(C#Cc2cc(C(=O)O)nc(C(=O)O)c2)cc1 | > 300
29 | N#Cc1ccc(C2=NNC(=O)C3CC23)cc1 (stereo not given) | 265 to 266
30 | CN(C)C=NC(=O)c1cnn2c(-c3ccccc3)ccnc12 | 198 to 202
31 | Cc1nc(-n2ccc(O)cc2=O)sc1C(=O)NCC1CC1 | 240 to 242
32 | Cc1ccccc1NC(=O)Nc1ccc(CC(=O)NC(CC(C)C)c2cc(C=CC(=O)O)on2)cc1 (stereo not given) | 136 to 138
33 | COC(=O)C1CCc2cc(OC)ccc2C1=O (stereo not given) | 82 to 84
34 | CC(CN1CCn2c(c(-c3ccccc3)c3cc(Cl)ccc32)C1=O)N(C)C (stereo not given) | 151 to 152
35 | COc1ccc(/C=C/C=C/C(=O)O)cc1 | 134 to 135
36 | Cc1cn(COC(COCc2ccccc2)COCc2ccccc2)c(=O)[nH]c1=O | 96 to 98
37 | CCCOc1ccccc1C1=NC(=O)C2=NC(SC)=NC2=N1 | 245 to 247
38 | O=C(O)c1ccccc1OCc1cccc(OCc2ccc3ccccc3n2)c1 | 149 to 154
39 | N[C@@]1(C(=O)O)C[C@H](NC(=O)Nc2cccc3ccccc23)[C@H]2[C@H](C(=O)O)[C@H]21 (relative stereo) | > 275
40 | CCCC(=O)N(C)Cc1c(-c2ccc(C)cc2)nc2n1-c1ccccc1CC2 | 110 to 112
41 | N#Cc1c(N)nc2ccc(N3CCOCC3)cc2c1Cl | 206
42 | Clc1ccc(COC(CNc2ccc(Cl)cc2Cl)Cn2ccnc2)cc1 (stereo not given) | 93 to 95
43 | Clc1ccc2c(c1)C(Cl)c1ccccc1CO2 (stereo not given) | 125 to 127
44 | COC(=O)c1ccc(OC2CCCCO2)cc1 (stereo not given) | 58 to 62
45 | CCCCc1nc(C(O)C(C)(C)C)c(C#N)n1Cc1ccc(-c2ccccc2-c2nnnn2C(c2ccccc2)(c2ccccc2)c2ccccc2)cc1 (stereo not given) | 134 to 135
46 | CS(=O)(=O)c1ccc(-c2cnn(-c3ccccc3C=O)c(=O)c2-c2ccc(F)cc2)cc1 | 234 to 236
47 | Cc1cc(C)cc(C(=O)NC(=S)Nc2c(O)cc(C)c(Br)c2C)c1 | 164 to 166
48 | CCC(CC)Nc1c([N+](=O)[O-])cc(C)c(N)c1[N+](=O)[O-] | 157 to 160
49 | N=C(N)NCCCOc1cccc2c1NC(=O)C(CC(=O)O)C2 (stereo not given) | 151 to 155
50 | O=C1CCC2=C(CCCC2)N1 | 143 to 144

Row | Compound | melting point [°C]
51 | COC(=O)C=C1NCC(CO)OC1=O (stereo not given) | 112 to 114
52 | CCOC(=O)c1cc2cc(OCCN(C)C)ccc2[nH]1 | 110
53 | CCCCc1ncc(/C(C)=C(\Cc2cccs2)C(=O)O)n1Cc1ccc(C#N)cc1 | 210 to 212
54 | Cc1cc(C)nc(-c2ccc(CN3CCN(c4ccc(O)cc4)CC3)cc2)n1 | 165 to 167
55 | NS(=O)(=O)c1ccc(-c2ccccc2-c2ccc(Cl)cc2)cc1 | 206 to 207
56 | COc1ccc(S(=O)(=O)NCC(O)(Cn2cncn2)c2ccc(Cl)cc2Cl)cc1 (stereo not given) | 56 to 66
57 | CC(C)C1=C(Cl)C(=O)c2ccccc2C1=O | 57 to 59
58 | COc1cc(OC)nc(Cc2ccccc2[N+](=O)[O-])n1 | 92 to 93
59 | CCCc1nn(-c2ccc(C(F)(F)F)cn2)cc1CCCOc1cc(CCC(=O)O)n(C)n1 | 80 to 81
60 | CN1C(=O)CC[C@]2(C)c3ccc(-c4ccc(F)c(F)c4)cc3CC[C@@H]12 | 143 to 148
61 | CCOC(=O)c1cccc(-c2cn(C)cc(-c3ccccc3)c2=O)c1 | 167 to 168
62 | CCC(C)n1ncn(-c2ccc(N3CCN(c4ccc(OC)cc4)CC3)cn2)c1=O (stereo not given) | 139 to 140
63 | CC(C)(C)C(=O)C(=Cc1cccnc1)Oc1ccc(Cl)cc1 | 74 to 76
64 | O=C(O)c1ccc(-c2cccc3cc(Cc4cccc(C(F)(F)F)c4)sc23)cc1 | 200 to 201
65 | O=C1N(Cc2ccc(Cl)cc2)c2ccccc2C1(O)c1cccs1 (stereo not given) | 140 to 143
66 | Cc1cc(COc2ccc(S(=O)(=O)NC[C@@H](C(=O)NO)N3CCN(Cc4ccc(F)cc4)CC3)cc2)c2ccccc2n1 | 180
67 | NC(=O)c1sc2cnccc2c1Oc1ccc(C(=O)N2CCOCC2)cc1 | > 260
68 | CN1CC(C(O)C(O)C(O)CO)OC1=C(C#N)C=C1Nc2ccccc2C1=O (stereo not given) | 237
69 | O=C1c2ccccc2-c2ccc(Cl)c3cccc1c23 | 179 to 190
70 | CC1CC=C(Nc2ccc(Br)cc2)c2ncc(C(=O)O)c(=O)n21 (stereo not given) | 202 to 204
71 | O=c1ccc(C(F)(F)F)cn1Cc1ccc(NCCCN2CCCCC2)cc1 | 168 to 170
72 | CCOC(=O)C(F)(F)C(O)(CC)c1cc2n(c(=O)c1CO)Cc1cc3ccccc3nc1-2 (stereo not given) | 208 to 209
73 | Cc1cc2c(cc1C)C1(O)C(=O)c3ccccc3C1(O)O2 (stereo not given) | 198 to 200
74 | COc1cc(-c2nc3ccccc3n2Cc2cccc(Cl)c2)cc(OC)c1OC | 83
75 | N#Cc1cc(C(=O)NCc2cccc([N+](=O)[O-])c2)c(OCC(=O)O)cc1F | 179 to 180

Row | Compound | melting point [°C]
76 | CCCCC1C2CCCC(C2=O)C2(O)CCCCC12 (stereo not given) | 140 to 141
77 | CCOCc1nc2c(N)nc3cc(Br)cnc3c2n1CC1(O)CCCC1 | 166 to 168
78 | CCOc1nc(CC)c(CNC(=O)C(S)CC(C)C)n1Cc1ccc(-c2ccccc2C(=O)O)cc1F (stereo not given) | 151
79 | OCc1cn(-c2ccc3ccccc3n2)cn1 | 136 to 137
80 | S=C(Nc1cnccc1NC1CCCCC1)NC1CCCCC1 | 157 to 159
81 | COc1ccc2c(c1O)C13CCN(C)C(C2)C1CC(C)C(=O)C3 (stereo not given) | 166 to 167
82 | CN1CCC(C2c3ccccc3CCc3cccnc32)CC1 (stereo not given) | 111 to 114
83 | CCCN(C)c1nc(N)nc2c1ncn2C1CC(F)C(CO)O1 (stereo not given) | 80 to 84
84 | ON=C(c1cccc(F)c1)c1cccc2nc(N[C@@H]3CCc4ccccc43)ccc12 | 180
85 | CCOC(=O)c1ccc(N2CCN(Cc3cnc4c(c3)NC(=O)[C@@H]3CCCN43)CC2)cc1 | 242
86 | CSc1nc(C)cc(-c2ccc(C(F)(F)F)cc2)n1 | 77 to 80
87 | O=C(Nc1ccccn1)c1sc(Nc2ccccc2)c2c1CCc1cnoc1-2 | 196 to 197
88 | COc1cnc(N)c2ccccc12 | 112 to 114
89 | COC(=O)c1ccsc1N/C=C(\C#N)C(=O)OC(C)(C)C | 154 to 157
90 | CCCn1c(CCOC)nc2c(N)nc3cc(OC(=O)NC(C)C)ccc3c21 | 144 to 146
91 | COc1ccc(OC)c2c1C=CNC(=O)C2 | 188 to 191
92 | CCNC1=NS(=O)(=O)c2cc(F)c(F)cc2N1 | 246 to 252
93 | CS(=O)(=O)OCC1COC(=O)N1c1ccc(Cl)cc1 (stereo not given) | 124 to 126
94 | N#Cc1ccc(-c2cnco2)cc1 | 140
95 | CCOC(=O)c1cnc2sc(-c3ccc(OC)cc3)c(CN(C)Cc3ccccc3)c2c1O | 175 to 177
96 | CCOc1ccc(-c2ccc3c(c2)C=C(C(=O)Nc2ccc(CN(C)C4CCC5(CC4)OCCO5)cc2)CCS3(=O)=O)cc1 | 220 to 223
97 | Cc1oc(-c2ccccc2)nc1C=Cc1ccc(/C=C/C=O)cc1 | 191 to 192
98 | COc1cc2ncc(C#N)c(Nc3ccc(O)cc3C)c2cc1OC | > 250
99 | O=C(Nc1cccnn1)N1CCN(c2ccnc(-c3ccc(F)cc3F)n2)CC1 | 200 to 201
100 | CC(=O)SCCC1NSc2cc(S(N)(=O)=O)c(Cl)cc2N1 (stereo not given) | 192 to 195
